# Results reported in patent US11014934B2, “Antiseptic drug” (AO “TATKHIMFARMPREPARATY”, priority 2017, dated 2021).
# Assays:
# Format in all cases: cell-based
# Rh. Oryzae = assay: Sensitivity of microscopic fungi in solution (colonies after exposure)
# Procedure: For the preparation of inoculum, were respectively used pure (2-5) days cultures of yeast and mycelial fungi, grown on Saburo's dense nutrient broth. Inoculum for plating was prepared in different ways, depending on the type of fungi. Thus, yeast crops (C. albicans) were prepared by washing the culture from an agar stroke. Cultures of mycelial fungi (Rh. oryzae, Asp. fumigatus) were pre-degraded in a pounder. A suspension of microorganisms was prepared in a sterile isotonic sodium chloride solution, bringing the inoculum density to 5 UNITS (GISK [State Research Institute of Standardization and Control] named after L. A. Tarasevich) or according to the McFarland standard 1 UNIT with a concentration of at least 1×10^6 CFU/ml, considering that the size of the fungal elements is approximately 10 times the size of bacteria (this provided the possibility of creating a mixture of biocide with suspension, the concentration of microorganisms of the order of 1×10^5 CFU/ml).
# Solutions of compound I, miramistin, and benzalkonium chloride in working concentrations (0.1%, 0.2%, 0.3%) were poured into sterile 0.9 ml tubes. 0.1 ml of microbial suspension was added to test tubes with disinfectant solutions and mixed by shaking for several seconds. The exposition lasted for 1, 5, and 15 minutes. After required temporary exposure for action of the disinfectant, 0.5 ml of the neutralizer solution was added and mixed by shaking.
# Then, 0.1 ml of the mixture was inoculated on a dense nutrient medium and the plates with inoculate were placed in a thermostat with a temperature of 27° C. for (2-4) days for yeast and (5-7) days for mycelial fungi, respectively.
# After the time required for the cultivation of microorganisms of this species, the results were counted according to the number of colonies grown on the Petri dish. In the absence of growth, the time for culturing microorganisms was increased by a factor of 2. The grown colonies were subjected to microscopy.
# The tested substances were studied on clinical and archival strains of yeast and mycelial fungi. As comparison drugs, drugs commonly used in clinical practice were used: miramistin and benzalconium chloride. After the required exposure time for action of the disinfectant, a series of 0.1 ml mixture was aseptically plated on the surface of a dense nutrient medium in Petri dishes. After the time of cultivation of microorganisms, the results were counted according to the number of colonies grown on the Petri dish.
# [1] = test system: Staphylococcus aureus ATCC 209p; assay: Disinfectant activity in contaminated metal surface test; details: for Inhibition rate (Mean ± SD) of Staphylococcus aureus ATCC 209p growth: 0.1% solution; for Inhibition rate (M ± SD) Staphylococcus aureus ATCC 209p: 0.2% solution
# Procedure: (§1) The preparation of the bacterial suspension was carried out similarly to the procedure for determining the disinfecting activity of compound I in suspension (see example 7). To simulate protein contamination of the metal surface, a BSA solution was added to the bacterial suspension to a final concentration of 0.4%. The surface of the metal table was drawn into squares, the number of which depended on the number of strains studied. The test surface should be clean, intact, sterile. To do this, the table was cleaned with alcohol, and then with sterile water. A microbial suspension in a volume of 0.125 ml was applied to a surface area of 5×5 cm and distributed with a sterile spatula over the entire square area. After the microbial suspension was dried, a 0.5 ml solution of compound I (miramistin and benzalkonium chloride being a control) was uniformly applied to the surface at a working concentration of 0.1 and 0.2% and distributed over the square surface with a sterile spatula, and then kept for 1, 5, and 15 minutes.
# (§2) After the end of exposure, the contaminated surface was thoroughly wiped with a sterile gauze cloth (size 5×5 cm) soaked in 1 ml of a neutralizer solution and the cloth was immersed in 10 ml of sterile physiological saline in a flask, which was shaken for 10 minutes.
# (§3) Plating was carried out as in example 7, in addition to the controls were carried out: • control of the sterility of the surface (before applying the microbial suspension, a metal table was washed off with a sterile swab, followed by plating on a nutrient medium); • control of the vitality of the microorganism (after applying microbial suspension on the metal table, it was washed off with a sterile swab with subsequent plating on the nutrient medium).
# (§4) The contamination density of 1 cm^2 of the surface and the percentage of disinfection were calculated, taking the number of colonies removed from control surfaces as 100%. The criterion for the effectiveness of surface disinfection is not less than 99.99% of the death of test microorganisms, the disinfection time is not more than 120 minutes.
# [2] = test system: Escherichia coli CDC F-50; assay: as above
# Procedure: as §1, §2, §3, §4
compound,measurement,setting,value
"CCCCCCCCCCCCCC(=O)NCCC[N+](C)(C)Cc1ccccc1.O.[Cl-] [Miramistin, benzyldimethyl [3-(myristoylamino)propyl]-ammonium chloride monohydrate]",Number of colonies grown in a Petri dish,"Rh. Oryzae; exposure 1 min, 0.1% solution",12
same,Number of colonies grown in a Petri dish,"Rh. Oryzae; exposure 1 min, 0.2% solution",2
same,Number of colonies grown in a Petri dish,"Rh. Oryzae; exposure 1 min, 0.3% solution",1
same,Number of colonies grown in a Petri dish,"Rh. Oryzae; exposure 5 min, 0.1% solution",10
same,Number of colonies grown in a Petri dish,"Rh. Oryzae; exposure 5 min, 0.2% solution",4
same,Number of colonies grown in a Petri dish,"Rh. Oryzae; exposure 15 min, 0.1% solution",2
same,Inhibition rate (Mean ± SD) of Staphylococcus aureus ATCC 209p growth,"[1]; exposure 1 min, +BSA",99.98 ± 0.00%
same,Inhibition rate (Mean ± SD) of Staphylococcus aureus ATCC 209p growth,"[1]; exposure 1 min, −BSA",99.98 ± 0.005%
same,Inhibition rate (Mean ± SD) of Staphylococcus aureus ATCC 209p growth,"[1]; exposure 5 min, +BSA",99.99%
same,Inhibition rate (Mean ± SD) of Staphylococcus aureus ATCC 209p growth,"[1]; exposure 5 min, −BSA",99.99%
same,Inhibition rate (Mean ± SD) of Staphylococcus aureus ATCC 209p growth,"[1]; exposure 15 min, +BSA",99.99%
same,Inhibition rate (Mean ± SD) of Staphylococcus aureus ATCC 209p growth,"[1]; exposure 15 min, −BSA",99.99%
same,Inhibition rate (M ± SD) Staphylococcus aureus ATCC 209p,"[1]; exposure 1 min, +BSA",99.98 ± 0.00%
same,Inhibition rate (M ± SD) Staphylococcus aureus ATCC 209p,"[1]; exposure 1 min, −BSA",99.98 ± 0.005%
same,Inhibition rate (M ± SD) Staphylococcus aureus ATCC 209p,"[1]; exposure 5 min, +BSA",99.99%
same,Inhibition rate (M ± SD) Staphylococcus aureus ATCC 209p,"[1]; exposure 5 min, −BSA",99.99%
same,Inhibition rate (M ± SD) Staphylococcus aureus ATCC 209p,"[1]; exposure 15 min, +BSA",99.99%
same,Inhibition rate (M ± SD) Staphylococcus aureus ATCC 209p,"[1]; exposure 15 min, −BSA",99.99%
same,time after application to effective inhibition of bacterial growth (99.99%),"[1]; Staphylococcus aureus ATCC 209p, 0.1% solutions",5 min
same,Inhibition rate (M ± SD) of Escherichia coli CDC F-50 growth,"[2]; 0.1% solution, exposure 1 min, +BSA",99.75 ± 0.005%
same,Inhibition rate (M ± SD) of Escherichia coli CDC F-50 growth,"[2]; 0.1% solution, exposure 1 min, −BSA",99.75 ± 0.00%
same,Inhibition rate (M ± SD) of Escherichia coli CDC F-50 growth,"[2]; 0.1% solution, exposure 5 min, +BSA",99.97 ± 0.005%
same,Inhibition rate (M ± SD) of Escherichia coli CDC F-50 growth,"[2]; 0.1% solution, exposure 5 min, −BSA",99.86 ± 0.005%
same,Inhibition rate (M ± SD) of Escherichia coli CDC F-50 growth,"[2]; 0.1% solution, exposure 15 min, +BSA",99.99 ± 0.005%
same,Inhibition rate (M ± SD) of Escherichia coli CDC F-50 growth,"[2]; 0.1% solution, exposure 15 min, −BSA",99.99 ± 0.005%
same,Inhibition rate (M ± SD) of Escherichia coli CDC F-50 growth,"[2]; 0.2% solution, exposure 1 min, +BSA",99.83 ± 0.005%
same,Inhibition rate (M ± SD) of Escherichia coli CDC F-50 growth,"[2]; 0.2% solution, exposure 1 min, −BSA",99.98 ± 0.005%
same,Inhibition rate (M ± SD) of Escherichia coli CDC F-50 growth,"[2]; 0.2% solution, exposure 5 min, +BSA",99.99 ± 0.005%
same,Inhibition rate (M ± SD) of Escherichia coli CDC F-50 growth,"[2]; 0.2% solution, exposure 5 min, −BSA",99.99 ± 0.005%
same,Inhibition rate (M ± SD) of Escherichia coli CDC F-50 growth,"[2]; 0.2% solution, exposure 15 min, +BSA",99.99 ± 0.005%
same,Inhibition rate (M ± SD) of Escherichia coli CDC F-50 growth,"[2]; 0.2% solution, exposure 15 min, −BSA",100%
same,time after application to effective inhibition of bacterial growth,"[2]; Escherichia coli CDC F-50, 0.1% solutions",15 min
